According to patent US9993482B2, “Pharmaceutical combination comprising a class III receptor tyrosine kinase inhibitor and the alkylating histone-deacetylase inhibitor fusion molecule EDO-S101 together with its use in the treatment of cancer” (priority 2014, dated 2018):
pIC50: −log10 of the molar value. Where two headings read alike, the source gives them in different places.

Legend:
[1] = system: acute myeloid leukemia cell line MOLM-13; assay: MOLM-13 cell survival, CellTiter-Glo, single drug testing; type: cell-based; conditions: Homo sapiens, MOLM-13, 72 h
Description: (§1) The acute myeloid leukemia cell line MOLM-13 (obtained from the ATCC) was cultured in media supplemented with 10% FBS at a temperature of 37° C., 5% CO2 and 95% humidity. Culture media was purchased from GIBCO, USA. The cells were plated out in 96-Well Flat Clear Bottom Black Polystyrene TO-Treated Microplates (Cat#3603, Corning®).
(§2) Equipment used was the EnVision Multi Label Reader, PerkinElmer (USA). CO2 Water Jacketed Incubator, Therma (USA). Reverse microscope, Chongguang XDS-1B, Chongqing Guangdian Corp. (Chongqing, P.R.China).
(§3) The cells were harvested respectively during the logarithmic growth period and counted with a hemocytometer.
(§4) For single drug testing, the cell concentrations were adjusted to 4.44×10^4 cells/ml with the medium supplemented with 10% FBS. 90 μl cell suspensions were added to 96-well plates, such that the final cell density was 4×10^3 cells/well. The appropriate cell density was determined and adjusted according to the results of our first test.
(§5) The next day, 10 μl (10×) of drug solution was prepared and dispensed in each well (triplicate for each drug concentration). After 72 h incubation, 100 μl CellTiter-Glow Reagent was added to each well. The contents were mixed for 2 minutes on an orbital shaker to induce cell lysis. The plate was allowed to incubate at room temperature for 10 minutes to stabilize the luminescent signal. Finally, the luminescence was recorded using an EnVision Multi Label Reader.
(§6) In order to calculate IC50, a dose-responsive curve was fitted using nonlinear regression model with a sigmoidal dose response. The formula of surviving rate is shown below, and the IC50 was automatically produced by GraphPad Prism 5.0. The surviving rate (%)=(LumTest article−LUMMedium control)/(LumNone treated−LUMMedium control)×100%.

[2] = system: multiple myeloma cell lines; conditions: in vitro; cited from earlier work
[3] = system: acute myeloid leukemia cell line MV-4-11; assay: MV-4-11 cell survival, CellTiter-Glo, two drug combination testing (CalcuSyn); type: cell-based; conditions: MV-4-11, 72 h, combination ratio 1:0.00120494
Description: as §1, with “MV-4-11” for “MOLM-13”, “fetal bovine serum (FBS)” for “FBS”, “TC-Treated” for “TO-Treated”
as §2
(§7) The cells were harvested respectively during the logarithmic growth period and counted with a hemocytometer. The cell viability is over 98% by trypan blue exclusion.
(§8) For two drug combination testing, the cell concentrations were adjusted to 5.00×10^4/ml with the medium supplemented with 10% FBS. 80 μl cell suspensions were added to 96-well plates, such that the final cell densities were 4×10^3 cells/well. The appropriate cell density was determined and adjusted according to the results of our first test.
The next day, 10 μl (10×) of each drug solution was prepared and dispense in each well simultaneously (triplicate for each concentration). After 72 h incubation, 100 μL […]-GLO® Reagent was added to each well. The contents were mixed for 2 minutes on an orbital shaker to induce cell lysis. The plate was allowed to incubate at room temperature for 10 minutes to stabilize luminescent signal. Then the luminescence was recorded using EnVision Multi Label Reader.
as §6, with “control)/(LUMNone” for “control)/(LumNone”
(§9) Compound interactions were calculated by multiple drug effect analysis and performed by the median equation principle with CalcuSyn software from the mean affected fraction at each drug ratio concentration of each drug according to the methodology described by Chou and Talalay (Chou et al., Adv. Enzyme Regul., 22, 27-55 (1984)), that calculates a combination index (CI) with the following interpretation: • CI>1: antagonist effect, CI=1: additive effect and CI<1 synergistic effect.
(§10) The CI was calculated from the mean affected fraction at each drug ratio concentration of each drug.

[4] = system: acute myeloid leukemia cell line MV-4-11; assay: MV-4-11 cell survival, CellTiter-Glo, single drug testing; type: cell-based; conditions: Homo sapiens, MV4-11, 72 h
Description: Culture media was purchased from GIBCO, USA.
as §2, §3, §4
as §5, with “After 72 h incubation, 100 μl CellTiter-Glow Reagent was added to each well.” left out
In order to calculate IC50, a dose-responsive curve was fitted using nonlinear regression model with a sigmoidal dose response. The formula of surviving rate is shown below, and the IC50 was automatically produced by GraphPad Prism 5.0.

[5] = system: acute myeloid leukemia cell line MOLM-13; assay: MOLM-13 cell survival, CellTiter-Glo, two drug combination testing (CalcuSyn); type: cell-based; conditions: MOLM-13, 72 h, combination ratio 1:0.00264302
Description: as §1, §2, §7, §8
The next day, 10 μl (10×) of each drug solution was prepared and dispense in each well simultaneously (triplicate for each concentration). After 72 h incubation, 100 μl CellTiter-Glo® Reagent was added to each well. The contents were mixed for 2 minutes on an orbital shaker to induce cell lysis. The plate was allowed to incubate at room temperature for 10 minutes to stabilize luminescent signal. Then the luminescence was recorded using EnVision Multi Label Reader.
as §6
as §9, with “Talalay,” for “Talalay (Chou et al., Adv. Enzyme Regul., 22, 27-55 (1984)),”
as §10

Structure (SMILES)	pIC50 ([1]; FIG. 3 single drug test using different doses (at 1:2 serial dilutions))	pIC50 ([1]; FIG. 3 single drug test with cisplatin control)	activity relative to bendamustin (times greater) [2]	DRI values at ED75 [3]	DRI values at ED90 [3]	pIC50 [4]	DRI values at ED75 [5]	DRI values at ED90 [5]	pIC50 ([1]; FIG. 3 single drug test using different doses (at 1:2 serial dilutions), read-out: IC50)	pIC50 ([1]; FIG. 3 single drug test with cisplatin control, read-out: IC50)	pIC50 ([4]; read-out: IC50)
Cn1c(CCCCCCC(=O)NO)nc2cc(N(CCCl)CCCl)ccc21 [EDO-S101]	5.76	6.15	35-100	1.368	1.482	6.18	5.925	8.534	–	–	–
CC(C)(C)c1cc(NC(=O)Nc2ccc(-c3cn4c(n3)sc3cc(OCCN5CCOCC5)ccc34)cc2)no1 [quizartinib, reference compound]	–	–	–	6.146	10.760	–	3.215	6.645	8.34	8.68	9.09
